The source of these data is ChEMBL document CHEMBL1141760, “Polyhydroxylated spirostanol saponins from the tubers of Dioscorea polygonoides” (J Nat Prod, 2005).

Assay [1] relates to HSC-2. As to the kind of experiment: Cytotoxicity against human HSC2 cells by MTT assay. The assay is classed as functional, cell-based.
Assay [2] has as its system HL-60. As to the kind of experiment: Cytotoxicity against human HL60 cells by MTT assay. The assay is classed as functional, cell-based.

As to `C[C@H]1CO[C@@]2(O[C@H]3C[C@@]4(O)[C@@H]5CC=C6C[C@@H](O[C@@H]7O[C@H](CO)[C@@H](O)[C@H](O)[C@H]7O[C@@H]7O[C@@H](C)[C@H](O)[C@@H](O)[C@H]7O)CC[C@]6(C)[C@H]5CC[C@]4(C)[C@@]3(O)[C@@H]2C)[C@@H](O)C1`, the IC50 in assay [1] and in assay [2] was above 200 µM in each case.
For `C[C@H]1CO[C@@]2(O[C@H]3C[C@@]4(O)[C@@H]5CC=C6C[C@@H](O)CC[C@]6(C)[C@H]5CC[C@]4(C)[C@@]3(O)[C@@H]2C)[C@@H](O)C1`, the IC50 in assay [1] and in assay [2] was above 200 µM each time.
Turning to `C[C@@H]1O[C@@H](O[C@H]2[C@H](O[C@H]3CC[C@@]4(C)C(=CC[C@H]5[C@@H]6C[C@@H]7O[C@@]8(OC[C@H](C)[C@@H](O)[C@@H]8O)[C@@H](C)[C@@H]7[C@@]6(C)CC[C@@H]54)C3)O[C@H](CO)[C@@H](O)[C@@H]2O)[C@H](O)[C@H](O)[C@H]1O`, the IC50 in assay [1] and in assay [2] was above 200 µM each time.
With `C[C@H]1CO[C@@]2(O[C@H]3C[C@H]4[C@@H]5CC=C6C[C@@H](O[C@@H]7O[C@H](CO)[C@@H](O)[C@H](O)[C@H]7O[C@@H]7O[C@@H](C)[C@H](O)[C@@H](O)[C@H]7O)CC[C@]6(C)[C@H]5C[C@H](O)[C@]4(C)[C@@]3(O)[C@@H]2C)[C@@H](O)C1`, the IC50 in assay [1] and in assay [2] was above 200 µM in each case.
As for `C[C@H]1CO[C@@]2(O[C@H]3C[C@H]4[C@@H]5CC=C6C[C@@H](O)CC[C@]6(C)[C@H]5C[C@H](O)[C@]4(C)[C@@]3(O)[C@@H]2C)[C@@H](O)C1`, the IC50 in assay [1] and in assay [2] was above 200 µM in each case.
